US7169753B2, “Chlorophyll and bacteriochlorophyll esters, their preparation and pharmaceutical compositions comprising them” (Yeda Research and Development Co. Ltd., priority 1999, dated 2007)

Test system: M2R melanoma cells
Experiment: Photodynamic activity in monolayer cell culture (phototoxicity to melanoma cells)
Format: cell-based
Details: mouse M2R melanoma cells, 4 hrs dark incubation, irradiation 600–1300 nm; for phototoxicity to M2R melanoma cells (result in words): viability by [3H]-thymidine incorporation, formed aggregates in the liposomes
Experimental: Liposome Preparation L-α-Dipalmitoylphosphatidylcholine (DPPC) liposomes as carrier system for pigments insoluble in water were prepared according to Toledano, 1998 and to Cuomo et al. 1990. […] (≅130 μg) of the photosensitizer and 5 mg DPPC were dissolved in 400 μl chloroform. Onto this were layered 250 μl H2O and 250 μl phosphate buffer (pH=7,2; 1,5 mM KH2PO4; 7,6 mM Na2HPO4; 0,15 M NaCl). The chloroform was removed within 5 min with a rapid stream of argon, while the mixture was sonicated and maintained at 45° C. Sonication was continued for another 20 min and the liposomes loaded with pigment were recovered in the supernatant after centrifugation (16 000×g, 10 min). The liposome concentration was determined photometrically at 750 nm (according to Grossweiner and Grossweiner, 1982). Photodynamic Activity in Monolayer Cell Culture M2R melanoma cells (mice) were cultivated as monolayers in 96-well microtiter-plates in DMEM (Dulbecco's modified Eagle's medium)/F12 1/1 (v/v) at 37° C. in a moist atmosphere containing 8% CO2. The medium (pH 7.4) was supplemented with HEPES buffer (25 mM), fetal-bovine-serum (FBS) (10%), glutamine (2 mM), penicillin (0.06 mg/ml) and streptomycin (0.1 mg/ml). Within 24 hrs, the cell density increased from 1×10^4 to 2×10^4 cell/100 μl. Increasing amounts of the liposome preparation containing the BChl-derivative were added to the cells. (Pd-BPheid-ser or Pd-BPheid-Nglc were added as ethanolic solution (10^−4 M) such that the maximum concentration of ethanol was <1%). The cells were first kept in the dark for 4 hrs, washed with 100 μl of the medium, treated with 100 μl of fresh medium, and then irradiated from below through the bottom of the plates with a russian BS LS3-PDT lamp, fitted with a filter (600–1300 nm). A light-dose of 10 mW x s x cm^−2 was provided during an irradiation time of […]. After an additional 24 h in the dark at 37° C., cell viability was determined by microscopic inspection (cell size and shape) and via [^3H]-thymidine incorporation into the DNA (Chen et al. 1988). […]

| Substance | LD90 (phototoxicity) (viability by [3H]-thymidine incorporation after 24 h, sensitizers in DPPC liposomes (Pd-BPheid-ser as ethanolic solution)) [µM] | phototoxicity to M2R melanoma cells (result in words) |
| --- | --- | --- |
| 13^3-tert-butyl-benzyl-Pd-bacteriopheophorbide-a-17^3-methyl ester [tbb-Pd-Bpheid-me] | 1.1 | – |
| 13^3-tert.-butyl-benzyl-Pd-bacteriopheophorbide-a-17^3-tert-butyl-benzyl ester [tbb-Pd-BPheid-tbb] | – | ineffective |
| Pd-bacteriopheophorbide a-17^3-N-glucosamide [Pd-BPheid-Nglc] | – | ineffective |
